Target: T1, SIRT1 (Homo sapiens, UniProt Q96EB6)
T1 sequence (Q96EB6 1-747): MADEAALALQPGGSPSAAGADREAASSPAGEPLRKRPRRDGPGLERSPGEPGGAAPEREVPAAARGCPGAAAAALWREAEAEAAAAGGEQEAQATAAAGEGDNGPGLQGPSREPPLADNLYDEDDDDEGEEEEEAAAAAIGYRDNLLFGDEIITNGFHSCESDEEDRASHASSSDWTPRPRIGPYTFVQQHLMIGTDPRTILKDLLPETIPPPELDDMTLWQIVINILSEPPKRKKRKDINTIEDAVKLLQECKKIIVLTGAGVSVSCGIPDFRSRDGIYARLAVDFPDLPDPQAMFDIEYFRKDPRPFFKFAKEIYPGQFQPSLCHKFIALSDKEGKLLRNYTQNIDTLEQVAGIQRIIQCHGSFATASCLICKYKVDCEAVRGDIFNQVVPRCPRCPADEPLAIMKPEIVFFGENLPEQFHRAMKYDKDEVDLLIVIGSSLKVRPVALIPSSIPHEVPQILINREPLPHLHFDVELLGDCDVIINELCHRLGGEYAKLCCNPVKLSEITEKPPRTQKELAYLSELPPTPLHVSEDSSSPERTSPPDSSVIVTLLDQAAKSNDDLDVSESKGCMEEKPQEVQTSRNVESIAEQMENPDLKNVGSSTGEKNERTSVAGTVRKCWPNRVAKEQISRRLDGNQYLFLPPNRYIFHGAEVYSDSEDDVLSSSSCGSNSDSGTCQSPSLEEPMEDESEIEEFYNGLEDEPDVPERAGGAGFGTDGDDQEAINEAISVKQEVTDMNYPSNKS
Assay: Trp mass spectrometry assay of SIRT1 activation
Format: biochemical
Details: Trp peptide Ac-R-H-K-K(Ac)-W-NH2 0.5 μM, 120 μM βNAD+, 10 nM SIRT1, 25 min, 25° C.

Compound	TRP Activity (EC1.5, concentration of compound required to increase SIRT1 activity by 50% over control)	TRP MAX RESP (percent maximum fold activation relative to control)
O=C(Nc1cncc(OC[C@@H](O)CO)n1)N1c2nc(-c3cccc(C(F)(F)F)c3)ncc2N2CC[C@H]1C2 [Example 50, (8S)—N-(6-((S)-2,3-dihydroxypropoxy)pyrazin-2-yl)-2-(3-(trifluoromethyl)phenyl)-7,8-dihydro-5,8-methanopyrimido[4,5-b][1,4]diazepine-9(6H)-carboxamide]	B (EC1.5 1-25 μM)	A (Fold activation ≥150%)
Cc1ccc(-c2nc(C)c3c(n2)N(C(=O)Nc2ccccn2)[C@H]2CCN3C2)cn1 [Example 12, (8S)-4-methyl-2-(6-methylpyridin-3-yl)-N-(pyridin-2-yl)-7,8-dihydro-5,8-methanopyrimido[4,5-b][1,4]diazepine-9(6H)-carboxamide]	B (EC1.5 1-25 μM)	A (Fold activation ≥150%)
O=C(Nc1ccc(OC[C@@H](O)CO)nc1)N1c2nc(-c3cccc(C(F)(F)F)c3)ncc2N2CCC[C@H]1C2 [Example 101, (9S)—N-(6-((S)-2,3-dihydroxypropoxy)pyridin-3-yl)-2-(3-(trifluoromethyl)phenyl)-8,9-dihydro-6H-5,9-methanopyrimido[4,5-b][1,4]diazocine-10(7H)-carboxamide]	A (EC1.5<1 μM)	A (Fold activation ≥150%)
Cc1cc(-c2ncc3c(n2)N(C(=O)Nc2ccccn2)[C@H]2CCN3C2)ccn1 [Example 8, (8S)-2-(2-methylpyridin-4-yl)-N-(pyridin-2-yl)-7,8-dihydro-5,8-methanopyrimido[4,5-b][1,4]diazepine-9(6H)-carboxamide]	B (EC1.5 1-25 μM)	
O=C(Nc1cnnc(OC[C@H](O)CO)c1)N1c2nc(-c3cccc(C(F)(F)F)c3)ncc2N2CC[C@H]1C2 [Example 44, (8S)—N-(6-((R)-2,3-dihydroxypropoxy)pyridazin-4-yl)-2-(3-(trifluoromethyl)phenyl)-7,8-dihydro-5,8-methanopyrimido[4,5-b][1,4]diazepine-9(6H)-carboxamide]	B (EC1.5 1-25 μM)	A (Fold activation ≥150%)
O=C(Nc1cc(OC[C@H](O)CO)ncn1)N1c2nc(-c3cccc(C(F)(F)F)c3)ncc2N2CCC[C@H]1C2 [Example 92, (9S)—N-(6-((R)-2,3-dihydroxypropoxy)pyrimidin-4-yl)-2-(3-(trifluoromethyl)phenyl)-8,9-dihydro-6H-5,9-methanopyrimido[4,5-b][1,4]diazocine-10(7H)-carboxamide]	A (EC1.5<1 μM)	A (Fold activation ≥150%)
O=C(Nc1cccc(OC[C@@H](O)CO)n1)N1c2nc(-c3cccc(C(F)(F)F)c3)ncc2N2CCC[C@H]1C2 [Example 84, (9S)—N-(6-((S)-2,3-dihydroxypropoxy)pyridin-2-yl)-2-(3-(trifluoromethyl)phenyl)-8,9-dihydro-6H-5,9-methanopyrimido[4,5-b][1,4]diazocine-10(7H)-carboxamide]	A (EC1.5<1 μM)	A (Fold activation ≥150%)
Cc1ccc(-c2ncc3c(n2)N(C(=O)Nc2cccnc2)[C@H]2CCN3C2)cn1 [Example 5, (8S)-2-(6-methylpyridin-3-yl)-N-(pyridin-3-yl)-7,8-dihydro-5,8-methanopyrimido[4,5-b][1,4]diazepine-9(6H)-carboxamide]	B (EC1.5 1-25 μM)	A (Fold activation ≥150%)
O=C(Nc1cc(OC[C@@H](O)CO)ccn1)N1c2nc(-c3cccc(C(F)(F)F)c3)ncc2N2CC[C@H]1C2 [Example 36, (8S)—N-(4-((S)-2,3-dihydroxypropoxy)pyridin-2-yl)-2-(3-(trifluoromethyl)phenyl)-7,8-dihydro-5,8-methanopyrimido[4,5-b][1,4]diazepine-9(6H)-carboxamide]	B (EC1.5 1-25 μM)	A (Fold activation ≥150%)
O=C(Nc1cccc(OC[C@H](O)CO)n1)N1c2nc(-c3cccc(C(F)(F)F)c3)ncc2N2CCC[C@H]1C2 [Example 89, (9S)—N-(6-((R)-2,3-dihydroxypropoxy)pyridin-2-yl)-2-(3-(trifluoromethyl)phenyl)-8,9-dihydro-6H-5,9-methanopyrimido[4,5-b][1,4]diazocine-10(7H)-carboxamide]	A (EC1.5<1 μM)	A (Fold activation ≥150%)
O=C(NC1CC1)N1c2nc(-c3cccc(C(F)(F)F)c3)ncc2N2CCC[C@H]1C2 [Example 87, (9S)—N-cyclopropyl-2-(3-(trifluoromethyl)phenyl)-8,9-dihydro-6H-5,9-methanopyrimido[4,5-b][1,4]diazocine-10(7H)-carboxamide]	A (EC1.5<1 μM)	A (Fold activation ≥150%)
Cc1ccc(-c2nc(C)c3c(n2)N(C(=O)Nc2cccnc2)[C@H]2CCN3C2)cn1 [Example 7, (8S)-4-methyl-2-(6-methylpyridin-3-yl)-N-(pyridin-3-yl)-7,8-dihydro-5,8-methanopyrimido[4,5-b][1,4]diazepine-9(6H)-carboxamide]	B (EC1.5 1-25 μM)	A (Fold activation ≥150%)
O=C(Nc1cnnc(OC[C@@H](O)CO)c1)N1c2nc(-c3cccc(C(F)(F)F)c3)ncc2N2CC[C@H]1C2 [Example 54, (8S)—N-(6-((S)-2,3-dihydroxypropoxy)pyridazin-4-yl)-2-(3-(trifluoromethyl)phenyl)-7,8-dihydro-5,8-methanopyrimido[4,5-b][1,4]diazepine-9(6H)-carboxamide]	B (EC1.5 1-25 μM)	A (Fold activation ≥150%)
O=C(Nc1cnc(OC[C@@H](O)CO)cn1)N1c2nc(-c3cccc(C(F)(F)F)c3)ncc2N2CCC[C@H]1C2 [Example 83, (9S)—N-(5-((S)-2,3-dihydroxypropoxy)pyrazin-2-yl)-2-(3-(trifluoromethyl)phenyl)-8,9-dihydro-6H-5,9-methanopyrimido[4,5-b][1,4]diazocine-10(7H)-carboxamide]	A (EC1.5<1 μM)	A (Fold activation ≥150%)
O=C(Nc1ncc(OC[C@H](O)CO)cn1)N1c2nc(-c3cccc(C(F)(F)F)c3)ncc2N2CCC[C@H]1C2 [Example 105, (9S)—N-(5-((R)-2,3-dihydroxypropoxy)pyrimidin-2-yl)-2-(3-(trifluoromethyl)phenyl)-8,9-dihydro-6H-5,9-methanopyrimido[4,5-b][1,4]diazocine-10(7H)-carboxamide]	A (EC1.5<1 μM)	A (Fold activation ≥150%)
